This assay has as its system HeLa. Briefly: Cytotoxicity against human HeLa cells. In kind it is functional, cell-based.

Molecules are shown by their SMILES.

`C[C@@]12CC[C@@H]3[C@]4(CCC[C@]3(C)C(=O)OC4)[C@H]1CC[C@]1(C)Oc3ccc(O)cc3C[C@@H]21` [STRONGYLOPHORIN 2]: the IC50 was > 100 µM.

Regarding `C[C@]12CCC[C@](C)(C(=O)O)[C@@H]1CC[C@]1(C)[C@@H]2CC[C@]2(C)Oc3ccc(O)cc3C[C@@H]12` [Strongylophorin-3], the IC50 came out at 45.2 µM.

Regarding `C[C@]12CCC[C@](C)(C=O)[C@@H]1CC[C@]1(C)[C@@H]2CC[C@]2(C)Oc3ccc(O)cc3C[C@@H]12` [Strongylophorin-4], the IC50 came out at 50.5 µM. The figure for `CC1(C)CCC[C@]2(C)[C@H]3CC[C@]4(C)Oc5ccc(O)cc5C[C@H]4[C@]3(C)CC[C@@H]12` [Strongylophorin-22] is 26.6 µM; for `CC1(C)CCC[C@@]2(CO)[C@H]1CC[C@]1(C)[C@@H]2CC[C@]2(C)Oc3ccc(O)cc3C[C@@H]12` [Strongylophorin-23] it is 62 µM; for `COc1ccc2c(c1)C[C@H]1[C@]3(C)CC[C@@H]4[C@](C)(CCC[C@]4(C)C(=O)O)[C@H]3CC[C@]1(C)O2` [Strongylophorine-1] it is 49.1 µM. In the case of `CC1(C)CCC[C@@]2(C=O)[C@H]1CC[C@]1(C)[C@@H]2CC[C@]2(C)Oc3ccc(O)cc3C[C@@H]12` [Strongylophorine-24], the concentration for half-maximal inhibition (IC50) was > 100 µM.

Usually IC50 stands for the concentration that gives 50% inhibition. Read a high IC50 as a need for much substance.

(Values after ChEMBL document CHEMBL1147267, “New strongylophorines from the Okinawan marine sponge Petrosia (Strongylophora) corticata” (J Nat Prod, 2003).)
